Patent US20060241174A1, “Vitamin E tocotrienols inhibition of intracellularly obligate pathogen Chlamydia and methods of use” (priority 2005, published 2006)

Key:
C. trachomatis serovar K = assay: Infection of delta tocotrienol-pretreated cell lines (J774A.1, MCF-7, TMX2-28, Hep-2, JY), immunofluorescence with microscopy or flow cytometry; format: cell-based, Chlamydia trachomatis; conditions: 10-30 μmol/L for 6 hours prior to infection
Procedure: Delta tocotrienol is a vitamin E compound also available as dietary supplement. […] Since Chlamydia species enter cells via cholesterol-rich lipid raft domains involved in cholesterol trafficking, tocotrienols in general and hypocholesterolemic delta tocotrienol in particular will reduce infection by Chlamydia. Mouse macrophages (J774A.1), human mammary tumor cells (MCF-7, TMX2-28), human epithelial cells (Hep-2), and human B-lymphocytes (JY) were incubated with delta tocotrienol at concentrations of 10-30 μmol/L for 6 hours prior to infection by C. trachomatis serovar K, a subspecies of Chlamydia that is the primary cause of bacteria-initiated STD. Infections were detected by immunofluorescence staining followed by either microscopy or quantitative flow cytometric analysis. Infection levels in cells pretreated with delta-tocotrienol were decreased by >50%, with concomitant aberrant pathogen development observed with confocal microscopy. The number of large and small inclusions in the delta tocotrienol-versus-control cells was decreased by 3- and 2-fold, respectively. […] The impact of dietary delta tocotrienol on Chlamydia infection in hyperlipidemic patients is being examined in a clinical study. Cholesterol-suppressive delta tocotrienol may have the potential to reduce Chlamydia infection in humans.

tumors = conditions: background statement, no source given; cited from earlier work
[1] = molecular target: T1, 3-hydroxy-3-methylglutaryl coenzyme A (HMG-CoA) reductase (Homo sapiens, UniProt P04035); conditions: delta>gamma>beta>alpha tocotrienol (Tan, 2005); cited from earlier work
T1 sequence (P04035 1-888): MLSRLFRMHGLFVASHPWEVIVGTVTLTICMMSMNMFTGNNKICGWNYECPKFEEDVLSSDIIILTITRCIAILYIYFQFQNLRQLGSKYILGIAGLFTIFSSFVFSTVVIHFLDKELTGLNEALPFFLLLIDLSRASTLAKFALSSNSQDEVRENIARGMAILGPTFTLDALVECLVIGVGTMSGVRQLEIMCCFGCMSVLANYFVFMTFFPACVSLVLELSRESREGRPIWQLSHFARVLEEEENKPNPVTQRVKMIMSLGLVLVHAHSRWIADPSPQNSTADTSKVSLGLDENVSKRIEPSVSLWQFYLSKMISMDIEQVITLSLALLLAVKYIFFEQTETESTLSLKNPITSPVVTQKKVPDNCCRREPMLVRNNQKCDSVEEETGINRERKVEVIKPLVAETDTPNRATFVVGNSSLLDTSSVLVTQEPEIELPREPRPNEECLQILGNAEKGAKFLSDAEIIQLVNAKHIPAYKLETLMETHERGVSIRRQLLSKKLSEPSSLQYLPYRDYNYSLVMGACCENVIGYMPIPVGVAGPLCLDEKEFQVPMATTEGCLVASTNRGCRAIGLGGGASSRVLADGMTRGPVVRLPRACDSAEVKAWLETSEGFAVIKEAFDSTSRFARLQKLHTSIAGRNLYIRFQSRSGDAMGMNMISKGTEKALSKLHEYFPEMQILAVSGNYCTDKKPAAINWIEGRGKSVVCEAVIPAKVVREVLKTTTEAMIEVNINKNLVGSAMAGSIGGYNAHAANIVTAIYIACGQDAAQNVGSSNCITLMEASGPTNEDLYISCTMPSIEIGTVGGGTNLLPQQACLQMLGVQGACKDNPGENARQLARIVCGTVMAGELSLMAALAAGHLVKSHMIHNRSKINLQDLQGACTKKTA

delta tocotrienol
decrease in number of large inclusions versus control cells (C. trachomatis serovar K): 3 fold | decrease in number of small inclusions versus control cells (C. trachomatis serovar K): 2 fold | decrease of infection levels in pretreated cells (C. trachomatis serovar K): > 50% | reduction of tumors (tumors): ≤ 70% | potency of cholesterol inhibition among tocotrienol isomers [1]: most potent isomer
